Experiment [1] addresses human A2a adenosine receptor (Homo sapiens (Human), UniProt P29274). In words: A2a receptor affinity radioligand binding assay ([3H] SCH58261, membranes from HEK293 or CHO cells). The following applies: for IC50: unstarred values: radioligand binding; for A2A binding % inh. @ 10000 nM: unstarred. The gist of the method: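 Displacement of tritiated SCH58261 (working dilution 4 nM) from recombinant human A2a receptor membranes (HEK293 or CHO), 60 min at room temperature in Tris pH 7.4/MgCl2 buffer after 15–30 min compound preincubation. Scintillation counting after filtration; normalized percent effect fitted 4-parameter logistic for IC50.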

Experiment [2] has as its target human A2b adenosine receptor (Homo sapiens (Human), UniProt P29275). Kind of experiment: A2b radioligand filtration binding assay (tritiated proprietary A2b antagonist, HEK293 membranes). The following applies: for IC50: unstarred values: radioligand binding; for A2B binding % inh. @ 10000 nM: unstarred. The gist of the method: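 Displacement of a tritiated proprietary A2b antagonist from membranes of HEK293 cells recombinantly expressing human A2b receptor, measured by filtration and scintillation counting. Percent effect was normalized to total and non-specific binding and fitted with a 4-parameter logistic to give IC50.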

human A2b adenosine receptor, sequence (P29275 whole entry): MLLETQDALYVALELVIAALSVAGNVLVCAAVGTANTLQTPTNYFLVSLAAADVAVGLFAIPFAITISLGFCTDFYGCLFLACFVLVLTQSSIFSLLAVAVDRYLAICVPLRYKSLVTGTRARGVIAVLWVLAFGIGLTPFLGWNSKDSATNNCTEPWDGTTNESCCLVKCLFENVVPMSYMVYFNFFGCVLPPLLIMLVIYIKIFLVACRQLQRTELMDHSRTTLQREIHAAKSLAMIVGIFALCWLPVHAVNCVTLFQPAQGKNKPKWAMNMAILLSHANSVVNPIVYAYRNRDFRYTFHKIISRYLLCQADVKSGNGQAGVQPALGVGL
human A2a adenosine receptor, sequence (P29274 whole entry): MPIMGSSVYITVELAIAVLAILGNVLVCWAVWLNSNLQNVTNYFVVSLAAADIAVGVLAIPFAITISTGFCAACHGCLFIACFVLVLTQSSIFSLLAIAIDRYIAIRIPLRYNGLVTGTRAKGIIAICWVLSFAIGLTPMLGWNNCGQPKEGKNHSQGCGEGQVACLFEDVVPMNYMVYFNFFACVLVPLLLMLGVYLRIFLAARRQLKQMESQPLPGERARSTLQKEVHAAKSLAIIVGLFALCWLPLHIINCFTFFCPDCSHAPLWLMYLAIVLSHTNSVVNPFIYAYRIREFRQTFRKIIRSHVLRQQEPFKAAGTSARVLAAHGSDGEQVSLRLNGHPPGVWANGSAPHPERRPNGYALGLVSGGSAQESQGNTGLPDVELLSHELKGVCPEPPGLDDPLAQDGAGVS

For `COc1cccc2c1nc(N)n1nc([C@@H]3CC[C@H](C)N(c4cnn(C(C)C(C)(C)O)c4)C3)nc21` (single isomer, unassigned) [Example 147C], the results for the IC50 in experiment [1] and in experiment [2] were 3.9 nM and 779 nM, respectively.

Compound `Cn1cc(N2CCCC(c3nc4c5c(C(F)(F)F)cccc5nc(N)n4n3)C2)cn1` (single isomer, unassigned) [Example 170, (R or S)-2-(1-(1-methyl-1H-pyrazol-4-yl)piperidin-3-yl)-10-(trifluoromethyl)-[1,2,4]triazolo[1,5-c]quinazolin-5-amine] gave an IC50 in experiment [1] of 204 nM. Further, the “A2B binding % inh. @ 10000 nM” value in experiment [2] is given as 28% inh. @ 10000 nM.

On to `COc1ccc2c(c1)nc(N)n1nc([C@@H]3CCCN(c4cnn(CC(C)(C)O)c4C)C3)nc21` [Example 181, (R)-1-(4-(3-(5-amino-8-methoxy-[1,2,4]triazolo[1,5-c]quinazolin-2-yl)piperidin-1-yl)-5-methyl-1H-pyrazol-1-yl)-2-methylpropan-2-ol], for which the 50% inhibitory concentration (IC50) was 0.3 nM in experiment [1] and 104 nM in experiment [2].

As for `COc1cccc2c1nc(N)n1nc([C@@H]3CCCN(c4cnn(C5CCCC5OC)c4)C3)nc21` (stereo partly drawn) [Example 56, 7-methoxy-2-((3R)-1-(1-(2-methoxycyclopentyl)-1H-pyrazol-4-yl)piperidin-3-yl)-[1,2,4]triazolo[1,5-c]quinazolin-5-amine], the IC50 in experiment [1] came to 0.9 nM; in experiment [2], 175 nM.

Consider `COc1cccc2c1nc(N)n1nc([C@@H]3CCCN(c4cnn([C@@H]5CCCC[C@]5(C)O)c4)C3)nc21` [Example 42, (1S,2R)-2-(4-((R)-3-(5-amino-7-methoxy-[1,2,4]triazolo[1,5-c]quinazolin-2-yl)piperidin-1-yl)-1H-pyrazol-1-yl)-1-methylcyclohexan-1-ol], for which the IC50 is 1.2 nM in experiment [1] and 3.5 nM in experiment [2].

With `COc1cccc2c1nc(N)n1nc([C@@H]3CCCN(c4ccc(=O)n(C(C)C)c4)C3)nc21` [Example 96, (R)-5-(3-(5-amino-7-methoxy-[1,2,4]triazolo[1,5-c]quinazolin-2-yl)piperidin-1-yl)-1-isopropylpyridin-2(1H)-one], the IC50 amounted to 0.6 nM in experiment [1] and 291 nM in experiment [2].

For the compound `COc1cccc2c1nc(N)n1nc([C@@H]3CCCN(c4nccn4C)C3)nc21` [Example 81, (R)-7-methoxy-2-(1-(1-methyl-1H-imidazol-2-yl)piperidin-3-yl)-[1,2,4]triazolo[1,5-c]quinazolin-5-amine], the IC50 was 1.4 nM in experiment [1] and 813 nM in experiment [2].

With `C[C@H]1CC[C@@H](c2nc3c4ccc(C5CC5)cc4nc(N)n3n2)CN1c1cnn(CC(C)(C)O)c1` (single isomer, unassigned) [Example 205, 1-(4-((2S, 5R or 2R,5S)-5-(5-amino-8-cyclopropyl-[1,2,4]triazolo[1,5-c]quinazolin-2-yl)-2-methylpiperidin-1-yl)-1H-pyrazol-1-yl)-2-methylpropan-2-ol], the figures for the IC50 in experiment [1] and in experiment [2] were 0.4 nM and 5.5 nM, respectively.

As for `CCNC(=O)C(C)(C)n1cc(N2CCC[C@@H](c3nc4c5cccc(OC)c5nc(N)n4n3)C2)cn1` [Example 36, (R)-2-(4-(3-(5-amino-7-methoxy-[1,2,4]triazolo[1,5-c]quinazolin-2-yl)piperidin-1-yl)-1H-pyrazol-1-yl)-N-ethyl-2-methylpropanamide], the values for the IC50 in experiment [1] and in experiment [2] were 1.8 nM and 1.7 nM, respectively.

In experiment [1], `COc1cccc2c1nc(N)n1nc(C3CC(F)CN(c4cn(CC(C)(C)O)nc4C)C3)nc21` (centres unmarked) [Example 151, 1-(4-(3-(5-amino-7-methoxy-[1,2,4]triazolo[1,5-c]quinazolin-2-yl)-5-fluoropiperidin-1-yl)-3-methyl-1H-pyrazol-1-yl)-2-methylpropan-2-ol] came in with an IC50 of 210 nM. Moreover, the “A2B binding % inh. @ 10000 nM” value in experiment [2] amounted to 27% inh. @ 10000 nM.

Take `COc1ccc2c(c1)nc(N)n1nc([C@@H]3CCCN(c4cnn(CC(C)(C)O)c4)C3)nc21` [Example 179, (R)-1-(4-(3-(5-amino-8-methoxy-[1,2,4]triazolo[1,5-c]quinazolin-2-yl)piperidin-1-yl)-1H-pyrazol-1-yl)-2-methylpropan-2-ol]: the figures for the IC50 in experiment [1] and in experiment [2] were 3.5 nM and 103 nM, respectively.

For `COc1ccc2c(c1)nc(N)n1nc([C@@H]3CCCN(c4ccc(OC(F)F)nc4)C3)nc21` [Example 191, (R)-2-(-(6-(difluoromethoxy)pyridin-3-yl)piperidin-3-yl)-8-methoxy-[1,2,4]triazolo[1,5-c]quinazolin-5-amine], the half-inhibitory concentration (IC50) in experiment [1] came out at 2.5 nM; in experiment [2], 18.4 nM.

As to `COc1cccc2c1nc(N)n1nc([C@@H]3CCCN(c4cnccn4)C3)nc21` [Example 102, (R)-7-methoxy-2-(1-(pyrazin-2-yl)piperidin-3-yl)-[1,2,4]triazolo[1,5-c]quinazolin-5-amine], the half-maximal inhibitory concentration (IC50) in experiment [1] amounted to 1 nM; in experiment [2] it was 151 nM.

In the case of `COc1cccc2c1nc(N)n1nc([C@@H]3CCCN(c4cnn(C(C)C(C)(C)O)c4)C3)nc21` (single isomer, unassigned) [Example 61A], the IC50 in experiment [1] came out at 0.2 nM; in experiment [2] it was 45.2 nM.

As to `COc1cccc2c1nc(N)n1nc([C@@H]3CCCN(c4cncc(C)n4)C3)nc21` [Example 103, (R)-7-methoxy-2-(1-(6-methylpyrazin-2-yl)piperidin-3-yl)-[1,2,4]triazolo[1,5-c]quinazolin-5-amine], the half-inhibitory concentration (IC50) in experiment [1] was found to be 1.2 nM; in experiment [2], 159 nM.

Regarding `COc1cccc2c1nc(N)n1nc([C@@H]3CCCN(c4cn(CC(C)(C)O)nc4C(F)F)C3)nc21` [Example 53, (R)-1-(4-(3-(5-amino-7-methoxy-[1,2,4]triazolo[1,5-c]quinazolin-2-yl)piperidin-1-yl)-3-(difluoromethyl)-1H-pyrazol-1-yl)-2-methylpropan-2-ol], the IC50 in experiment [1] came to 0.7 nM; in experiment [2] it was 151 nM.

As to `COc1ccc2c(c1)nc(N)n1nc([C@H]3C[C@@H](C)CN(c4cnn(CC(C)(C)O)c4)C3)nc21` [Example 195A], the IC50 in experiment [1] came out at 35.9 nM; in experiment [2], 5810 nM.

Take `COc1cccc2c1nc(N)n1nc([C@@H]3CCCN(c4cnn([C@H]5CCN(C)C5)c4)C3)nc21` [Example 50, 7-methoxy-2-((R)-1-(1-((S)-1-methylpyrrolidin-3-yl)-1H-pyrazol-4-yl)piperidin-3-yl)-[1,2,4]triazolo[1,5-c]quinazolin-5-amine]: the 50% inhibitory concentration (IC50) in experiment [1] was 0.9 nM; in experiment [2] it was 160 nM.

On to `COc1ccc2c(c1)nc(N)n1nc([C@@H]3C[C@H](F)CN(c4cn(CC(C)(C)O)nc4C)C3)nc21` [Example 197B, 1-(4-((3R,5S)-3-(5-amino-8-methoxy-[1,2,4]triazolo[1,5-c]quinazolin-2-yl)-5-fluoropiperidin-1-yl)-3-methyl-1H-pyrazol-1-yl)-2-methylpropan-2-ol], for which the concentration for half-maximal inhibition (IC50) is 0.4 nM in experiment [1] and 1370 nM in experiment [2].

As for `COc1cccc2c1nc(N)n1nc([C@@H]3CCCN(c4cnn([C@@H]5CCCC[C@@H]5O)c4)C3)nc21` [Example 25], the results for the IC50 in experiment [1] and in experiment [2] were 2.3 nM and 5.7 nM, respectively.

For the compound `Cn1cc(N2CCCC(c3nc4c5cccc(O)c5nc(N)n4n3)C2)cn1` (single isomer, unassigned) [Example 165, (R or S)-5-amino-2-(1-(1-methyl-1H-pyrazol-4-yl)piperidin-3-yl)-[1,2,4]triazolo[1,5-c]quinazolin-7-ol], the “A2A binding % inh. @ 10000 nM” value in experiment [1] is 19% inh. @ 10000 nM. Further, the “A2B binding % inh. @ 10000 nM” value in experiment [2] turned out to be 10% inh. @ 10000 nM.

Turning to `COc1ccc2c(c1)nc(N)n1nc([C@@H]3CC[C@H](C)N(c4cnn(C5CCC[C@H]5O)c4)C3)nc21` (some centres unmarked) [Example 210A], the figures for the IC50 in experiment [1] and in experiment [2] were 0.2 nM and 4.8 nM, respectively.

With `COc1cccc2c1nc(N)n1nc([C@@H]3CCCN(c4nn(CC(C)(C)O)cc4C(F)(F)F)C3)nc21` [Example 62, (R)-1-(3-(3-(5-amino-7-methoxy-[1,2,4]triazolo[1,5-c]quinazolin-2-yl)piperidin-1-yl)-4-(trifluoromethyl)-1H-pyrazol-1-yl)-2-methylpropan-2-ol], the figures for the IC50 in experiment [1] and in experiment [2] were 0.3 nM and 631 nM, respectively.

Turning to `COc1cccc2c1nc(N)n1nc(C3CCC(C)N(c4cnn(C(C)(C)CO)c4)C3)nc21` (single isomer, unassigned) [Example 146D], the concentration for half-maximal inhibition (IC50) in experiment [1] came to 0.8 nM; in experiment [2], 4.6 nM.

With `COc1cccc2c1nc(N)n1nc([C@@H]3CCCN(c4cnn(C(C)(C)C(=O)NC(C)C)c4)C3)nc21` [Example 38, (R)-2-(4-(3-(5-amino-7-methoxy-[1,2,4]triazolo[1,5-c]quinazolin-2-yl)piperidin-1-yl)-1H-pyrazol-1-yl)-N-isopropyl-2-methylpropanamide], the half-inhibitory concentration (IC50) in experiment [1] amounted to 4.1 nM; in experiment [2], 1.4 nM.

`COc1cccc2c1nc(N)n1nc([C@@H]3CCCN(c4nccnc4C)C3)nc21` [Example 101, (R)-7-methox-2-(1-(3-methylpyrazin-2-yl)piperidin-3-yl)-[1,2,4]triazolo[1,5-c]quinazolin-5-amine]: the IC50 in experiment [1] was 0.5 nM; in experiment [2] it was 178 nM.

`COc1cccc2c1nc(N)n1nc(C3CCCN(c4cnn(C)c4)[C@H]3C)nc21` (some centres unmarked) [Example 128A]: the IC50 in experiment [1] was 862 nM. The “A2B binding % inh. @ 10000 nM” value in experiment [2] came out at 18% inh. @ 10000 nM.

For `C[C@H]1CC[C@@H](c2nc3c4ccc(C5CNC5)cc4nc(N)n3n2)CN1c1cnn(CC(C)(C)O)c1` (single isomer, unassigned) [Example 208, 1-(4-((2S,5R or 2R,5S)-5-(5-amino-8-(azetidin-3-yl)-[1,2,4]triazolo[1,5-c]quinazolin-2-yl)-2-methylpiperidin-1-yl)-1H-pyrazol-1-yl)-2-methylpropan-2-ol], in experiment [1], the “A2A binding % inh. @ 10000 nM” value is reported as 10% inh @ 10000 nM % inh. Also, in experiment [2], the “A2B binding % inh. @ 10000 nM” value came out at 5% inh. @ 10000 nM.

For orientation: IC50 means the point on the concentration scale where inhibition reaches its midpoint. Low readings indicate greater potency, high ones weaker potency.

For the origin of these results see patent US12263171B2, “7-, 8-, and 10-substituted amino triazolo quinazoline derivatives as adenosine receptor antagonists, pharmaceutical compositions and their use” (Merck Sharp & Dohme LLC, priority 2018, dated 2025).
